In patent US11287433B2, “Methods for in vitro investigating mitochondrial replication dysfunction in a biological sample, kits and uses thereof, therapeutic methods against progeroid-like syndromes or symptoms and screening method for identifying particular protease inhibitor(s) and/or nitroso-redox stress scavenger …” (INSTITUT PASTEUR, priority 2014, dated 2022):
Peptide text beside a SMILES is read from it. * marks the point of attachment. Cbz = O=C(OCc1ccccc1)*

Columns and labels:
POLG1 levels [1] = experiment: POLG1 immunofluorescence in patient fibroblasts after treatment with protease inhibitors; assay type: cell-based, human; settings: 5 hours
Protocol: (§1) Cells plated on slides were fixed with 2% PFA and permeabilized with 0.5% Triton X-100. The slides were incubated in blocking buffer (BSA 5% in PBS) for 1 h then with the primary antibody (POLγ and HTRA3 purchased from SantaCruz Biotechnology, or as available from any other provider) for 1 h at room temperature. A second, fluorescent antibody (goat anti-mouse and goat anti-rabbit Alexa® Fluor 488, Alexa® Fluor 555, conjugated secondary antibodies from Invitrogen or by any other provider), was incubated for 1-2 h at room temperature, and DNA was stained with 10 μg/ml Hoechst.
(§2) Image analysis was carried out using Perkin-Elmer Ultraview RS Nipkow-spinning disk confocal microscope. Three-dimensional reconstruction of all the z-stacks was achieved using the 3D-volume rendering of IMARIS software (Bitplane). A regular fluorescence microscope can also be used, including for fluorescence quantification, although in this last case it will quantify one section of the cell only and not the entire volume; this quantification may be sufficient for comparative studies (normal versus patient cells). Confocal acquisition (even in the absence of spinning disk) in 3D allows quantification of the entire volume, and differences among samples are therefore more robust.
The inventors treated fibroblasts from healthy individuals, from UV^SS and from Cockayne syndrome of type I and II (the last being the more severe), with protease inhibitors MG132 (5 μM) and KSTI (100 μg/ml) for 5 hours and then tested for POLG1 levels.

POLG1 levels [2] = experiment: POLG1 levels in CSB-silenced HeLa cells after protease inhibitors; assay type: cell-based, human
HTRA3 = HTRA3 fluorescence intensity per cell after MnTBAP; assay type: cell-based, human
Protocol: as §1, §2
(§3) The inventors quantified fluorescence intensities on cells as summarized in Table 1 before and after treatment with MnTBAP (purchased from Millipore) of DCF and of DHR123 per cell (FIGS. 9(a) and (b)), as well as fluorescence intensities of HTRA2 (FIG. 9(c)), HTRA3 (FIG. 9(d)), POLG1 (FIG. 9(e)) per cell.

[3] = test system: reactive oxygen species (ROS); experiment: ROS levels by DCFHDA (DCF) fluorescence in fibroblasts; assay type: cell-based, human; settings: control and UVSS fibroblasts; 24 h
Text: The inventors assessed the relative levels of oxidative stress using the fluorescent probe dichlorofluorescein diacetate (DCFHDA), which prevalently detects reactive oxygen species (ROS)^29. They reported that whereas UV^SS cells display moderate (25%) increase of signal compared to controls, all CS cells are characterized by higher levels (1.6 to 2-fold) of oxidative stress (FIG. 8a), in agreement with a previous finding^30.
as §3
(§4) Manganase(III)tetrakis(4-benzoic acid)porphyrin (MNTBAP) is a synthetic metalloporphyrin which mimics superoxide dismutase and scavenges ROS and peroxynitrite^32.

HTRA2 = HTRA2 fluorescence intensity per cell after MnTBAP; assay type: cell-based, human
Protocol: as §1
as §2, with “robust. […]” for “robust.”

[4] = test system: adult primary fibroblasts IMR-90 and BJ; experiment: Cell survival of primary cells in culture at longer incubation times; assay type: cell-based
Protocol: As KSTI (serine protease inhibitor) and MnTBAP (ROS/RNS scavenger) rescue the CS phenotype by 24 h treatment, the inventors assessed cell survival in culture at longer incubation times with either drug. They used doses of the drugs as those affecting CS cells: 100 μg/ml of KSTI and 100 μM MnTBAP on adult primary fibroblasts IMR-90 and BJ (from ATCC repository). […] Additional experiments are ongoing to test the survival at longer incubation times and lower doses of the drug.

ATP synthesis = experiment: ATP tests (glycolysis/OXPHOS fraction and total ATP per cell) after MnTBAP; assay type: cell-based, human
mtDNA content = experiment: qPCR of mtDNA content after MnTBAP; assay type: cell-based, human
peroxynitrite = experiment: Peroxynitrite levels by DHR123 fluorescence in fibroblasts; assay type: cell-based, human; settings: all control and patient cells; 24 h
Text: High levels of ROS react with nitric oxide (NO), thereby quenching NO and promoting the formation of peroxynitrite (ONOO^−), which is a powerful oxidant and nitration agent^31.
as §3, §4

POLG1 = POLG1 fluorescence intensity per cell after MnTBAP; assay type: cell-based, human; settings: normal fibroblasts
Protocol: as §1
as §2, with “robust. […]” for “robust.”

[5] = CS type I and type II fibroblasts 359, 797 and 816, MG132 5 μM or KSTI 100 μg/ml
[6] = CS type I fibroblasts 539 and 548, MG132 5 μM or KSTI 100 μg/ml
[7] = fibroblasts of healthy individuals and of UVSS, MG132 5 μM or KSTI 100 μg/ml

CC(C)C[C@@H](C=O)NC(=O)[C@H](CC(C)C)NC(=O)[C@H](CC(C)C)NC(=O)OCc1ccccc1 [MG132, benzyl N-[(2S)-4-methyl-1-[[(2S)-4-methyl-1-[[(2S)-4-methyl-1-oxopentan-2-yl]amino]-1-oxopentan-2-yl]amino]-1-oxopentan-2-yl]carbamate] (Cbz-Leu-Leu-Leu-aldehyde)
POLG1 immunofluorescence level (POLG1 levels [1]; [5]): POLG1 levels exceeded those of untreated healthy individuals | POLG1 immunofluorescence level (POLG1 levels [1]; [6]): Significant modifications in two CS type I fibroblasts (539 and 548) were not observed | POLG1 immunofluorescence level (POLG1 levels [1]; CS type II fibroblasts 177, MG132 5 μM): increased to levels of healthy individual | POLG1 immunofluorescence level (POLG1 levels [1]; [7]): increased levels of POLG1 immunofluorescence | POLG1 levels (POLG1 levels [2]): restored normal POLG1 levels

O=C(O)c1ccc(/C2=C3\C=CC(=N3)/C(c3ccc(C(=O)O)cc3)=c3/cc/c4[n]3[Mn]([Cl])[n]3c2ccc3/C(c2ccc(C(=O)O)cc2)=C2/C=CC(=N2)\C=4c2ccc(C(=O)O)cc2)cc1 [MnTBAP, Manganese (III) tetrakis (4-benzoic acid) porphyrin chloride]
levels of HTRA3 (HTRA3; CS cells): restored control levels of HTRA3 | levels of HTRA3 (HTRA3; UVSS cells): did reduce | levels of HTRA3 (HTRA3; control cells): increased the levels of HTRA3 | levels of ROS, measured by DCFHDA [3]: decreased by two thirds | HTRA2 reduction (HTRA2; UVSS and all CS cells, compared with control cells): dramatically higher | levels of serine protease HTRA2 (HTRA2; control cells): reduce by one half | cell survival (cell number and cell shape) ([4]; 100 μM MnTBAP, continuous treatment by 3 days): did not show effect on cell survival | glycolytic shift / fraction of ATP produced by mitochondria (ATP synthesis; CS cells, 24 h treatment): attenuated | total ATP levels (ATP synthesis; UVSS and CS cells): remain relatively high | mtDNA content (mtDNA content; control fibroblasts): does not change the mtDNA content | mtDNA content (mtDNA content; patient cells): becomes close to the value of controls | levels of peroxynitrite, measured by DHR123 (peroxynitrite): greatly reduced | levels of POLG1 (POLG1): increased levels of POLG1

B1: KSTI: Kunitz soybean trypsin inhibitor, a natural serine protease inhibitor (protein)
chain: DFVLDNEGNPLENGGTYYILSDITAFGGIRAAPTGNERCPLTVVQSRNELDKGIGTIISSPYRIRFIAEGHPLSLKFDSFAVIMLCVGIPTEWSVVEDLPEGPAVKIGENKDAMDGWFRLERVSDDEFNNYKLVFCPQQAEDDKCGDIGISIDHDDGTRRLVVSKNKPLVVQFQKLDKESL
POLG1 immunofluorescence level (POLG1 levels [1]; [5]): POLG1 levels exceeded those of untreated healthy individuals | POLG1 immunofluorescence level (POLG1 levels [1]; [6]): Significant modifications in two CS type I fibroblasts (539 and 548) were not observed | POLG1 immunofluorescence level (POLG1 levels [1]; [7]): increased levels of POLG1 immunofluorescence | cell survival (cell number and cell shape) ([4]; 100 μg/ml KSTI, continuous treatment by 6 days): did not show effect on cell survival | POLG1 levels (POLG1 levels [2]): restored normal POLG1 levels
